Here are results for 17 compounds from patent US8716326B2, “Isoindolinone derivatives, preparation method thereof and a pharmaceutical composition comprising same” (Korea Research Institute of Chemical Technology, priority 2009, dated 2014).

The assay has as its system Runx2. Nature of the assay: Runx2 activity, 6xOSE2-Luc luciferase reporter in transfected C2C12 cells. Format: cell-based, Mouse. Conditions: 24 hrs; for fold induction at 2.5 µM / fold induction at 5 µM / fold induction at 10 µM / fold induction at 20 µM: Mus musculus, read-out: luciferase activity relative to control set as 1. The procedure: Mouse premyoblast cell (C2C12 cell) was transfected using receptor vector 6xOSE2-Luc in order to investigate the activity of the amide compound of the present invention on Runx2.
Specifically, the receptor vector 6xOSE2-Luc was prepared by inserting an artificial promoter linked by six tandem copies of the OSE2 (osteoblast specific element-2) into vector pGL3 (Promega; Madison, Wis., U.S.A.), and then, cloned into the C2C12 cell to be transfected (Kim et al., Journal of Cellular Biochemistry, 91: 1239-1247, 2004). The OSE2 is the binding site of Runx2 in the promoter of osteocalcin which is a bone marker.
C2C12 cells (5,000 cells/well) were plated onto 96-well plates using 10% FBS (fetal bovine serum; Hyclone)-containing DMEM (Dulbecco's Modified Eagle's Medium), the medium was replaced with 5% FBS-containing DMEM after 24 hrs, and treated with each of the amide compounds obtained in Examples 1 to 94 at various concentrations of 2.5 μM, 5.0 μM, 10 μM, and 20 μM. As a control, dimethyl sulfoxide (DMSO) vehicle was applied to the cell in an amount same as that of the amide compound. After 24 hrs, the luciferase activity in the cell lysate was measured by using Dual-Luciferase Reporter Assay System (Promega). The luciferase activity of the amide compound of the present invention was calculated as a value relative to that observed for the control which was set as 1.
(Reporter assays use an easily measured gene product as a stand-in for the process of interest.)

As for `COc1cc2c(c(Br)c1OC)CN(Cc1ccc(C(=O)Nc3ccccc3N)cc1)C2=O` [Example 1, N-(2-aminophenyl)-4-((4-bromo-5,6-dimethoxy-1-oxoisoindolin-2-yl)methyl)benzamide], the fold induction at 2.5 µM (2.5 μM) was found to be 21.4. In addition, the fold induction at 5 µM (5.0 μM) came to 26.2. Moreover, where the note is “10 μM”, the fold induction at 10 µM turned out to be 19.9. For the setting “20 μM”, the fold induction at 20 µM came out at 15.8.

Take `COc1cc2c(c(-c3ccccc3)c1OC)CN(Cc1ccc(C(=O)Nc3ccccc3N)cc1)C2=O` [Example 2, N-(2-aminophenyl)-4-((5,6-dimethoxy-1-oxo-4-phenylisoindolin-2-yl)methyl)benzamide]: the fold induction at 2.5 µM (2.5 μM) was determined as 27.3. In addition, the fold induction at 5 µM (5.0 μM) worked out at 24.8. Moreover, the fold induction at 10 µM (10 μM) turned out to be 19.7. In addition, the fold induction at 20 µM (20 μM) is 21.7.

For `COc1cc2c(c(-c3cc(C)cc(C)c3)c1OC)CN(Cc1ccc(C(=O)Nc3ccccc3N)cc1)C2=O` [Example 3, N-(2-aminophenyl)-4-((5,6-dimethoxy-4-(3,5-dimethylphenyl)-1-oxoisoindolon-2-yl)methyl)benzamide], the “luciferase activity relative to control set as 1” value runs as follows: (2.5 μM) 25.2 fold; (5.0 μM) 25.7 fold; (10 μM) 22.7 fold; (20 μM) 18.7 fold.

With `COc1cc2c(c(-c3cccnc3)c1OC)CN(Cc1ccc(C(=O)Nc3ccccc3N)cc1)C2=O` [Example 4, N-(2-aminophenyl)-4-((5,6-dimethoxy-1-oxo-4-(pyridin-3-yl)isoindolin-2-yl)methyl)benzamide], the fold induction at 2.5 µM (2.5 μM) came out at 37. The fold induction at 5 µM (5.0 μM) stood at 42.2. Moreover, the fold induction at 10 µM (10 μM) is 36.6. Moreover, under “20 μM”, the fold induction at 20 µM is 36.7.

Turning to `COc1ccc(-c2c3c(cc(OC)c2OC)C(=O)N(Cc2ccc(C(=O)Nc4ccccc4N)cc2)C3)cc1` [Example 5, N-(2-aminophenyl)-4-((5,6-dimethoxy-4-(4-methoxyphenyl)-1-oxoisoindolin-2-yl)methyl)benzamide], under “2.5 μM”, the fold induction at 2.5 µM worked out at 30.4. Moreover, the fold induction at 5 µM (5.0 μM) is 25.3. In addition, the fold induction at 10 µM (10 μM) was 17.7. Besides, the fold induction at 20 µM (20 μM) was found to be 15.4.

Take `COc1cc2c(c(-c3ccc(C(F)(F)F)cc3)c1OC)CN(Cc1ccc(C(=O)Nc3ccccc3N)cc1)C2=O` [Example 6, N-(2-aminophenyl)-4-((4-(4-(trifluoromethyl)phenyl)-5,6-dimethoxy-1-oxoisoindolin-2-yl)methyl)benzamide]: the fold induction at 2.5 µM (2.5 μM) amounted to 14.2. The fold induction at 5 µM (5.0 μM) is 18.3. Moreover, where the note is “10 μM”, the fold induction at 10 µM came out at 17.2. Moreover, the fold induction at 20 µM (20 μM) is 9.3.

Turning to `COc1ccc(-c2c3c(cc(OC)c2OC)C(=O)N(Cc2ccc(C(=O)Nc4ccccc4N)cc2)C3)cc1OC` [Example 7, N-(2-aminophenyl)-4-((5,6-dimethoxy-4-(3,4-dimethoxyphenyl)-1-oxoisoindolin-2-yl)methyl)benzamide], the fold induction at 2.5 µM (2.5 μM) came to 24.6. Also, under “5.0 μM”, the fold induction at 5 µM was 26.9. Moreover, under “10 μM”, the fold induction at 10 µM amounted to 24.3. In addition, for the setting “20 μM”, the fold induction at 20 µM came out at 18.4.

As for `Nc1ccccc1NC(=O)c1ccc(CN2Cc3c(Br)cccc3C2=O)cc1` [Example 9, N-(2-aminophenyl)-4-((4-bromo-1-oxoisoindolin-2-yl)methyl)benzamide], the fold induction at 2.5 µM (2.5 μM) was 12.4. Moreover, the fold induction at 5 µM (5.0 μM) is 11.3. In addition, where the note is “10 μM”, the fold induction at 10 µM stood at 9.7. Besides, the fold induction at 20 µM (20 μM) came out at 9.4.

With `Nc1ccccc1NC(=O)c1ccc(CN2Cc3c(cccc3-c3cncnc3)C2=O)cc1` [Example 10, N-(2-aminophenyl)-4-((1-oxo-4-(pyrimidin-5-yl)isoindolin-2-yl)methyl)benzamide], the fold induction at 2.5 µM (2.5 μM) was 7.9. The fold induction at 5 µM (5.0 μM) was found to be 11.6. Where the note is “10 μM”, the fold induction at 10 µM was found to be 14.4. The fold induction at 20 µM (20 μM) turned out to be 16.7.

On to `Nc1ccccc1NC(=O)c1ccc(CN2Cc3c(cccc3-c3ccccc3)C2=O)cc1` [Example 11, N-(2-aminophenyl)-4-((1-oxo-4-phenylisoindolin-2-yl)methyl)benzamide], for which the fold induction at 2.5 µM (2.5 μM) came out at 8.3. The fold induction at 5 µM (5.0 μM) worked out at 12.3. For the same compound, for the setting “10 μM”, the fold induction at 10 µM was found to be 15.6. For the setting “20 μM”, the fold induction at 20 µM stood at 16.8.

`Cc1cc(C)cc(-c2cccc3c2CN(Cc2ccc(C(=O)Nc4ccccc4N)cc2)C3=O)c1` [Example 12, N-(2-aminophenyl)-4-((4-(3,5-dimethylphenyl)-1-oxoisoindolin-2-yl)methyl)benzamide]: the fold induction at 2.5 µM (2.5 μM) amounted to 5.5. The fold induction at 5 µM (5.0 μM) was determined as 9. For the same compound, the fold induction at 10 µM (10 μM) is 12.2. Further, for the setting “20 μM”, the fold induction at 20 µM came out at 10.4.

Consider `Nc1ccccc1NC(=O)c1ccc(CN2Cc3c(cccc3-c3ccc(C(F)(F)F)cc3)C2=O)cc1` [Example 13, N-(2-aminophenyl)-4-((4-(4-(trifluoromethyl)phenyl)-1-oxoisoindolin-2-yl)methyl)benzamide], for which the fold induction at 2.5 µM (2.5 μM) is 7.9. Also, the fold induction at 5 µM (5.0 μM) was 8. For the same compound, for the setting “10 μM”, the fold induction at 10 µM was 9.3. Further, the fold induction at 20 µM (20 μM) turned out to be 7.2.

With `Nc1ccccc1NC(=O)c1ccc(CN2Cc3c(cccc3-c3cccnc3)C2=O)cc1` [Example 14, N-(2-aminophenyl)-4-((1-oxo-4-(pyridin-3-yl)isoindolin-2-yl)methyl)benzamide], the fold induction at 2.5 µM (2.5 μM) was 12. Also, the fold induction at 5 µM (5.0 μM) came to 15.7. In addition, the fold induction at 10 µM (10 μM) amounted to 15.4. Further, for the setting “20 μM”, the fold induction at 20 µM worked out at 16.9.

As for `COc1ccc(-c2cccc3c2CN(Cc2ccc(C(=O)Nc4ccccc4N)cc2)C3=O)cc1` [Example 15, N-(2-aminophenyl)-4-((4-(4-methoxyphenyl)-1-oxoisoindolin-2-yl)methyl)benzamide], the fold induction at 2.5 µM (2.5 μM) was found to be 7.4. Also, the fold induction at 5 µM (5.0 μM) is 10.4. Also, under “10 μM”, the fold induction at 10 µM was determined as 12. Also, under “20 μM”, the fold induction at 20 µM was found to be 14.

For the compound `COc1ccc(-c2cccc3c2CN(Cc2ccc(C(=O)Nc4ccccc4N)cc2)C3=O)cc1OC` [Example 16, N-(2-aminophenyl)-4-((4-(3,4-dimethoxyphenyl)-1-oxoisoindolin-2-yl)methyl)benzamide], the fold induction at 2.5 µM (2.5 μM) is 12.2. Besides, the fold induction at 5 µM (5.0 μM) came to 12.3. Also, the fold induction at 10 µM (10 μM) amounted to 8.5. In addition, where the note is “20 μM”, the fold induction at 20 µM is 9.2.

For `Nc1ccccc1NC(=O)c1ccc(CN2Cc3c(cccc3-c3cc(F)cc(F)c3)C2=O)cc1` [Example 17, N-(2-aminophenyl)-4-((4-(3,5-difluorophenyl)-1-oxoisoindolin-2-yl)methyl)benzamide], the fold induction at 2.5 µM (2.5 μM) was found to be 11.2. The fold induction at 5 µM (5.0 μM) came to 14.7. Also, the fold induction at 10 µM (10 μM) worked out at 16.3. The fold induction at 20 µM (20 μM) worked out at 15.8.

Consider `Nc1cccc(-c2cccc3c2CN(Cc2ccc(C(=O)Nc4ccccc4N)cc2)C3=O)c1` [Example 18, N-(2-aminophenyl)-4-((4-(3-aminophenyl)-1-oxoisoindolin-2-yl)methyl)benzamide], for which the fold induction at 2.5 µM (2.5 μM) came to 15.3. In addition, under “5.0 μM”, the fold induction at 5 µM was found to be 16.2. Further, the fold induction at 10 µM (10 μM) turned out to be 20.2. Further, the fold induction at 20 µM (20 μM) was 18.5.
